According to article PMC8807614 (Scientific Reports, 2022):
“Also recorded” adds a separate entry of the source. Blank lines part the entries; values can stand above or below the molecule they belong to. Peptide text beside a SMILES is read from it.

How the values were obtained:
[1] = plasma from cardiac blood samples of DIO mice dosed with GUB03385 (SC); conditions: DIO mice (male C57BL/6 J), up to 120 min
[2] = plasma of DIO mice 4 h after last dosing on treatment day 6 (SC, BID); conditions: DIO mice (male C57BL/6 J), up to 4 h after last dosing on treatment day 6
[3] = target: T1, human prolactin releasing peptide receptor (GPR10) (Homo sapiens, UniProt P49683); assay: GPR10 functional activity assay (IP1, HTRF); format: cell-based; conditions: Chem-1 cells stably expressing human GPR10, 10.000 cells/well; HTRF IP1 (CisBio); 30 min at 37 °C; IP1 stimulation buffer with 0.05% casein; 11 concentrations
T1 sequence (P49683 1-370): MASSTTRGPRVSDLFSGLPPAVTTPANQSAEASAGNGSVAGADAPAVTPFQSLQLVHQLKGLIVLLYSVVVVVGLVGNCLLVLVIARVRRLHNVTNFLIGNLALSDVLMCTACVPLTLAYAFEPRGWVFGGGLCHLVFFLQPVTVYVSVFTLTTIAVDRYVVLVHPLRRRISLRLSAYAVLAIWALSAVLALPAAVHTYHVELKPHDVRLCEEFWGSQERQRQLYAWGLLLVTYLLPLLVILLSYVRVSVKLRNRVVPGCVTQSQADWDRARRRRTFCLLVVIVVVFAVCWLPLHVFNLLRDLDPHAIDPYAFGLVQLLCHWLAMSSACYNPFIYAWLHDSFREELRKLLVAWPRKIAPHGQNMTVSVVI

[4] = target: human NPFF2R (Homo sapiens, UniProt Q9Y5X5); assay: NPFF2R functional activity assay (cAMP, HTRF); format: cell-based; conditions: CHO-K1 cells stably expressing human NPFF2R, 1500 cells/well; HTRF cAMP (CisBio); 3 µM forskolin (~90% activity level); 30 min; DPBS, 0.5 mM IBMX, 0.05% casein; 11 concentrations
human NPFF2R, sequence (Q9Y5X5 whole entry): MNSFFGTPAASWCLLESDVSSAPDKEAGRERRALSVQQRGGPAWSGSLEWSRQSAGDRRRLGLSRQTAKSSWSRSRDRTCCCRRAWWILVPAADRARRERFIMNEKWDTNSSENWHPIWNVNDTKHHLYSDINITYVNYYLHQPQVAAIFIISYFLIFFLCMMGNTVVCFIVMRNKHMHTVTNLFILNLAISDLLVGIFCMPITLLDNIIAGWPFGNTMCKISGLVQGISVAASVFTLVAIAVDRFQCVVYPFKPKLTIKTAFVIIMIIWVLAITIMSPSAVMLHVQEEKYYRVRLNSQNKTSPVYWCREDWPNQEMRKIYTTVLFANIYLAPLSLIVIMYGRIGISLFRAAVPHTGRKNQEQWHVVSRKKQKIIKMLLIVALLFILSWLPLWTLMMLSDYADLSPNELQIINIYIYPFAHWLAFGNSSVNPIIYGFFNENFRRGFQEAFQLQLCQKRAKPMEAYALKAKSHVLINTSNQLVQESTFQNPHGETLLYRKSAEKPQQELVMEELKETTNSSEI
Description: Figure 3 GPR10 and NPFF2R profiling of in vivo metabolites of GUB03385. […] (b) cAMP measurements in human NPFF2R CHO-K cells (HTRF technology, CisBio) at a fixed concentration of 3 µM forskolin after 30 min. incubation at room temperature with metabolites and the native peptide NPSF. Representative curves of three determinations.
The Homogenous Time Resolved Fluorescence (HTRF) technology optimized for Gq coupled receptors has thoroughly been described in the CisBio IP1 kit manual (#62IPAPEC) and in the cAMP assay kit manual for Gi coupled receptors (#62AM9PEC). Briefly, this technic is based on a competitive immunoassay using cryptate-labelled anti-cAMP or anti-IP1 antibodies and d2-labeled cAMP or IP1. In the absence of cellular cAMP or IP1, the anti-cryptate conjugate may get into proximity to the d2 conjugate and energy (FRET) can be transferred from cryptate to d2. Chem-1 cells stably expressing the human prolactin releasing peptide receptor (GPR10, Eurofins, # HTS057C) and irradiated CHO-K1 cells stably expressing the human NPFF2R (PerkinElmer, #ES-490-CF) were applied as cells in suspension, brought to life from frozen cell stocks immediately before assay performance. 384-Well (Corning, #4513) assay formats with a total assay volume of 20 µl were applied. GPR10 cells (10.000 cells/well) were incubated with agonist peptides and the NPFF2R cells (1500 cells/well) were incubated with agonist peptides and forskolin (~ 90% activity level) for 30 min at 37 °C using IP1 kit stimulation buffer and DPBS (Sigma, #D8537) containing 0.5 mM IBMX (Sigma, # I5879), receptively. Both stimulation buffers were supplemented with 0.05% casein (Sigma, # C4765-10 ml). After addition of HTRF® detection reagents and incubation with shaking (2400 rpm) for one hour at room temperature signals at 620 and 665 nm (raw counts: ratio of 665/620) were detected at a ClarioStar plate reader (BMG Labtech, Ortenberg, Germany). Concentration–response evaluation of compounds was performed with 11 concentrations of agonist peptides (covering 3 decades) and EC50 values were calculated by nonlinear regression using sigmoid concentration–response with variable slope. Data were analysed using GraphPad v9.1 software (GraphPad, La Jolla, CA).

[5] = system: DIO mice; assay: In vivo efficacy of lipidated PrRP31 analogues in DIO mice (body weight, food intake); set-up: species or system male C57BL/6 J mice
Description: For all in vivo studies, male C57BL/6 J mice (5 weeks old, n = 7–8) were purchased from Janvier Labs (Le Genest Saint Isle, France). Individual animals were identified by implantable subcutaneous microchips (PetID Microchip, E-vet, Haderslev, Denmark). Mice were housed in a controlled environment (12 h light/dark cycle, lights on at 3 AM, 21 ± 2 °C, humidity 50 ± 10%) and had ad libitum access to tap water and regular chow (Altromin 1324, Brogaarden, Hørsholm, Denmark) or high-fat diet (60% fat, D12492 Research diet) for up to 47 weeks prior to the initiation of the study. All animal experiments were conducted in accordance to internationally accepted principles for the care and use of laboratory animals. All experiments were approved by The Animal Experimentation Council, Danish Veterinary and Food Administration (license #2013-15-2934-00784) and the Gubra ethics committee. All experiments complied with the ARRIVE guidelines.
Compounds were freshly prepared in vehicle (PBS with 0.1% BSA, pH 4) just prior to dosing. Semaglutide was purchased from Hoersholm Pharmacy (Hoersholm, Denmark). All animals were single housed two weeks prior to treatment and throughout the remaining of the study period. Mice were randomized to treatment according to body weight (n = 7–8 per group) and dosed subcutaneously (SC, 5 ml/kg) for a total of 7 days with vehicle (BID), semaglutide (10 nmol/kg, QD) or peptide analogues (1,250 nmol/kg, BID). All compounds were administered during the light phase. Body weight and food intake (24 h) were measured daily during the treatment period and one week after treatment. In vivo data were subjected to relevant statistical analyses using GraphPad v9.1 software (GraphPad, La Jolla, CA). Statistical evaluation was carried out using Dunnett’s test one-factor linear model (endpoint body weight, food intake, cumulative food intake). A p-value less than 0.05 was considered statistically significant.

[6] = Plasma peptide concentrations 4 h after last dosing in DIO mice; format: in vivo, male C57BL/6 J mice; conditions: treatment day 6, 1,250 nmol/kg SC BID
Description: (a) Body weight. (b) 24 h food intake. (c) total food intake during treatment phase. (d) total food intake during wash-out phase. (e) Plasma peptide concentrations as measured 4 h after last dosing (treatment day 6). Peptides were administered (SC, BID) at a dose of 1250 nmol/kg (n = 7–8 per group). **p < 0.01, ***p < 0.001 compared to vehicle.
Figure 4 Lipidated metabolites of GUB03385 robustly reduce body weight and food intake in DIO mice. Effect of subchronic treatment (days 0–6) with GUB08248, GUB08251, GUB10194 and GUB10195 followed by 7-day wash-out period (days 7–13, marked in grey). In vivo efficacy was compared to semaglutide (10 nmol/kg, SC, QD, n = 8). (a) Body weight. (b) 24 h food intake. (c) Total food intake during treatment phase. (d) Total food intake during wash-out phase. (e) Plasma peptide concentrations as measured 4 h after last dosing (treatment day 6).
Compounds were freshly prepared in vehicle (PBS with 0.1% BSA, pH 4) just prior to dosing. Semaglutide was purchased from Hoersholm Pharmacy (Hoersholm, Denmark). All animals were single housed two weeks prior to treatment and throughout the remaining of the study period. […] Body weight and food intake (24 h) were measured daily during the treatment period and one week after treatment. […]

Molecule: SRTHRHSMEIRTPDINPAWYASRGK*RPVGRF (K* lipid chain: C18 γE OEG OEG; C-terminally amidated)
- fragment found [1]: GUB08247: ASRGK*RPVG (C18 γE OEG OEG), major, 30 min; also recorded: GUB08248: SRGK*RPVGRF (C18 γE OEG OEG), major, 30 min; also recorded: GUB08249: SRGK*RPVG (C18 γE OEG OEG), major, 30 min; also recorded: GUB08250: SRGK*RPV (C18 γE OEG OEG), major, 30 min; also recorded: GUB08251: GK*RPVGRF (C18 γE OEG OEG), major, 60 min; also recorded: GUB08252: K*RPVGR (C18 γE OEG OEG), major, 60 min; also recorded: GUB08253: K*RPVG (C18 γE OEG OEG), major, 60 min; also recorded: GUB08254: K*RPV (C18 γE OEG OEG), major, 60 min

- fragment found [2]: GUB08251
Molecule: SRGK*RPVGRF (K* lipid chain: C18 γE OEG OEG)

- fragment found [2]: GUB10195
Molecule: SRGK*RPVGRF (K* lipid chain: C18DA γE OEG OEG)

Molecule: CCCCCCCCCCCCCCCC(=O)N[C@@H](CCC(=O)NCCCC[C@H](NC(=O)[C@@H](NC(=O)[C@H](CCC(=O)O)NC(=O)[C@H](CCSC)NC(=O)[C@H](CO)NC(=O)[C@H](Cc1c[nH]cn1)NC(=O)[C@H](CCCNC(=N)N)NC(=O)[C@H](Cc1c[nH]cn1)NC(=O)[C@@H](NC(=O)[C@H](CCCNC(=N)N)NC(=O)[C@@H](N)CO)[C@@H](C)O)[C@@H](C)CC)C(=O)N[C@H](C(=O)N1CCC[C@H]1C(=O)N[C@@H](CC(=O)O)C(=O)N[C@H](C(=O)N[C@@H](CC(N)=O)C(=O)N1CCC[C@H]1C(=O)N[C@@H](C)C(=O)N[C@@H](Cc1c[nH]c2ccccc12)C(=O)N[C@@H](Cc1ccc(O)cc1)C(=O)N[C@@H](C)C(=O)N[C@@H](CO)C(=O)N[C@@H](CCCNC(=N)N)C(=O)NCC(=O)N[C@H](C(=O)N[C@@H](CCCNC(=N)N)C(=O)N1CCC[C@H]1C(=O)N[C@H](C(=O)NCC(=O)N[C@@H](CCCNC(=N)N)C(=O)N[C@@H](Cc1ccccc1)C(N)=O)C(C)C)[C@@H](C)CC)[C@@H](C)CC)[C@@H](C)O)C(=O)O [GUB02647] (HELM PEPTIDE1{S.R.T.H.R.H.S.M.E.I.K.T.P.D.I.N.P.A.W.Y.A.S.R.G.I.R.P.V.G.R.F.[am]}|PEPTIDE2{[CCCCCCCCCCCCCCCC(=O)[*:2]].[gGlu]}$PEPTIDE1,PEPTIDE2,11:R3-2:R2$$$V2.0)
- EC50 [3]: 0.3 nM
- EC50 [4]: 147 nM
- effect on food intake ([5]; 1,250 nmol/kg SC BID days 0-6, wash-out days 7-13, 24 h food intake measured daily): significantly suppressed food intake during the treatment period, but not in the wash-out phase
- body weight loss, day 7 ([5]; 1,250 nmol/kg SC BID for 7 days (days 0-6), after last dosing, n = 7-8 per group): 11.8 ± 1.0%
- body weight loss, day 13 ([5]; 1,250 nmol/kg SC BID for 7 days, then 7-day wash-out, n = 7-8 per group): 8.1 ± 1.0%
- weight loss (as summarised in discussion) ([5]; subchronic SC treatment with 1,250 nmol/kg BID, time point not stated): 8%
- plasma exposure 4 h after last dosing [6]: not detected in plasma; also recorded: undetectable in plasma
